In BigSolDB 2.1:

COc1cc(Cc2cnc(N)nc2N)cc(OC)c1OC
solubility (mole fraction)
Conditions	293.15 K	298.45 K	303.45 K	308.15 K	312.95 K	318.65 K	322.65 K
in acetonitrile	0.00035	0.000437	0.000534	0.000664	0.000809	0.00103	0.00127
in ethanol	0.00071	0.00092	0.00112	0.00134	0.00173	0.00226	0.00304
in ethyl acetate	0.000276	0.000332	0.000398	0.000481	0.000606	0.000773	0.000966
in isopropanol	0.000227	0.000294	0.000434	0.000543	0.000764	0.00106	0.00141
in water	2e-05	2.49e-05	3.02e-05	3.68e-05	4.68e-05	6.05e-05	7.14e-05
